From paper PMC7156724, “Potent BRD4 inhibitor suppresses cancer cell-macrophage interaction” (Nature Communications, 2020)
Several values for one entry are separate records, joined by “and”; a condition that tells them apart may be missing. Equal values may be shown once.

How the values were obtained:
BRD4 (BD1+BD2) = biological target: T1, BRD4 (BD1+BD2) (Homo sapiens, UniProt O60885); test: BRD4 (BD1+BD2) TR-FRET binding assay; details: for Biochemical activity against BRD4 (BD1 + BD2): replicates; for IC50: average IC50, nM, read-out: IC50, biochemical activity against BRD4 (BD1 + BD2)
T1 construct: purchased BPS 32612
From the text: 2. BRD4 binding assay. The inhibitory effects of NHWD-530, NHWD-540, NHWD- […]
(BPS, Cat # 32612) per manufacturer’s instructions. […]

[1] = test system: NCI-H211 small cell lung cancer (SCLC) cells; test: AlamarBlue assay, NCI-H211; format: cell-based; details: for Cellular activity in SCLCs (H211), alamarBlue: Fig.1e, replicates; for IC50: Homo sapiens, NCI-H211, 72 h, 72 h treatment, nM, read-out: IC50, cellular activity in NCI-H211 (alamarBlue)
Procedure: (§1) 3. AlamarBlue assay. AlamarBlue was made by resazurin sodium salt (Sigma, Cat
(§2) # 199303) dissolved in PBS.
(§3) NCI-H211, MDA-MB231 and A375 cells were plated in 96-well plates at approximately 30% confluence and left overnight to adhere. In the following day, […]
(§4) of treatment, 10 μl AlamarBlue reagent (0.3 mg/ml) was added to each well, and after 18h, the florescence intensity in each well was measured using a top-reading fluorescent plate reader with excitation at 530 nm and emission at 590 nm. […]

[2] = test system: MDA-MB231 triple negative breast cancer (TNBC) cells; test: AlamarBlue assay, MDA-MB231; format: cell-based, human; details: for Cellular activity in TNBCs (MDA-MB231), alamarBlue: Fig.1f, replicates; for IC50: Homo sapiens, MDA-MB-231, 72 h, 72 h treatment, nM, read-out: IC50, cellular activity in MDA-MB231 (alamarBlue)
Procedure: as §1, §2, §3, §4

[3] = Fig.1b, concentration(nM) 0.0339849
[4] = Fig.1b, concentration(nM) 0.137272
[5] = Fig.1b, concentration(nM) 0.614394
[6] = Fig.1b, concentration(nM) 1.09152
[7] = Fig.1b, concentration(nM) 1.56864
[8] = Fig.1b, concentration(nM) 2.04576
[9] = Fig.1b, concentration(nM) 2.52288
[10] = Fig.1d, concentration(nM) 0.0021442
[11] = Fig.1d, concentration(nM) 0.061236
[12] = Fig.1d, concentration(nM) 0.103
[13] = Fig.1d, concentration(nM) 0.59176
[14] = Fig.1d, concentration(nM) 1.19382
[15] = Fig.1d, concentration(nM) 1.79588
[16] = Fig.1d, concentration(nM) 2.39794
[17] = concentration column prints 2.52288

In the case of `Cc1nnn(C)c1-c1cnc2c3cc4c(cc3n([C@H](c3ccccc3)C3CCOCC3)c2c1)C(=O)N(C)C4` [NHWD-530], the “Biochemical activity against BRD4 (BD1 + BD2)” value (“Biochemical activity” below) (BRD4 (BD1+BD2); [3]) is reported as 0.9223 and 6.575, the “Biochemical activity” value (BRD4 (BD1+BD2); [4]) is reported as 8.361 and 5.3853 and the “Biochemical activity” value (BRD4 (BD1+BD2); [5]) is reported as 7.766 and 14.6266. The “Biochemical activity” value (BRD4 (BD1+BD2); [6]) was 25.6174 and 20.5594, the “Biochemical activity” value (BRD4 (BD1+BD2); [7]) was 58.197 and the “Biochemical activity” value (BRD4 (BD1+BD2); [8]) was 88.9914 and 87.355. The “Biochemical activity” value (BRD4 (BD1+BD2); [9]) was 96.1321 and 98.9586, the “Biochemical activity” value (BRD4 (BD1+BD2); Fig.1b, concentration(nM) 3) was 102.231 and 101.636 and the IC50 (BRD4 (BD1+BD2)) was 28.5 nM.

`Cc1nnn(C)c1-c1cnc2c3cc4c(cc3n([C@H](c3ccccc3)C3CCOCC3)c2c1)CN(C)C4=O` [NHWD-540] was tested, and the “Biochemical activity” value (BRD4 (BD1+BD2); [3]) was 5.534 and 1.544, the “Biochemical activity” value (BRD4 (BD1+BD2); [4]) was 6.278 and 5.237 and the “Biochemical activity” value (BRD4 (BD1+BD2); [5]) was 11.7822 and 11.931. The “Biochemical activity” value (BRD4 (BD1+BD2); [6]) was 36.626 and 29.039, the “Biochemical activity” value (BRD4 (BD1+BD2); [7]) was 74.1149 and 79.0241 and the “Biochemical activity” value (BRD4 (BD1+BD2); [8]) was 94.7932 and 97.1735. The “Biochemical activity” value (BRD4 (BD1+BD2); [9]) was 100.446 and 100.744, the “Biochemical activity” value (BRD4 (BD1+BD2); Fig.1b, concentration(nM) 3) was 101.488 and 101.636 and the IC50 (BRD4 (BD1+BD2)) was 18.1 nM.

In the case of `Cc1nnn(C)c1-c1cnc2c3c4c(ccc3n([C@H](c3ccccc3)C3CCOCC3)c2c1)C(=O)N(C)C4` [NHWD-560], the “Biochemical activity” value (BRD4 (BD1+BD2); [3]) is reported as 10.1562 and 13.125, the “Biochemical activity” value (BRD4 (BD1+BD2); [4]) is reported as 5 and 10.625 and the “Biochemical activity” value (BRD4 (BD1+BD2); [5]) is reported as 14.5312 and 15.4688. For the same molecule, the “Biochemical activity” value (BRD4 (BD1+BD2); [6]) was 33.5938 and 32.5, the “Biochemical activity” value (BRD4 (BD1+BD2); [7]) was 66.25 and 68.125 and the “Biochemical activity” value (BRD4 (BD1+BD2); [8]) was 95.625 and 95. For the same molecule, the “Biochemical activity” value (BRD4 (BD1+BD2); [9]) was 101.719, the “Biochemical activity” value (BRD4 (BD1+BD2); Fig.1b, concentration(nM) 3) was 102.344 and 102.5 and the IC50 (BRD4 (BD1+BD2)) was 19.5 nM.

In the case of `Cc1nnn(C)c1-c1cnc2c3c4ccn(C)c4ccc3n([C@H](c3ccccc3)C3CCOCC3)c2c1` [NHWD-830], the “Biochemical activity” value (BRD4 (BD1+BD2); [3]) is reported as 0.8628 and 1.4579, the “Biochemical activity” value (BRD4 (BD1+BD2); [4]) is reported as 6.575 and 2.559 and the “Biochemical activity” value (BRD4 (BD1+BD2); [5]) is reported as 10.2946 and 5.683. The “Biochemical activity” value (BRD4 (BD1+BD2); [6]) was 69.3038 and 62.4692, the “Biochemical activity” value (BRD4 (BD1+BD2); [7]) was 79.3216 and 83.6358 and the “Biochemical activity” value (BRD4 (BD1+BD2); [8]) was 95.8346 and 94.942. For the same molecule, the “Biochemical activity” value (BRD4 (BD1+BD2); [9]) was 100.744 and 99.5537, the “Biochemical activity” value (BRD4 (BD1+BD2); Fig.1b, concentration(nM) 3) was 101.346 and 101.785 and the IC50 (BRD4 (BD1+BD2)) was 10.2 nM.

In the case of `Cc1nnn(C)c1-c1cnc2c3cc4c(cnn4C)cc3n([C@H](c3ccccc3)C3CCOCC3)c2c1` [NHWD-840], the “Biochemical activity” value (BRD4 (BD1+BD2); [10]) is reported as 6.699 and 2.7152, the “Biochemical activity” value (BRD4 (BD1+BD2); [11]) is reported as 2.407 and 5.845 and the “Biochemical activity” value (BRD4 (BD1+BD2); [12]) is reported as 1.577 and 18.3661. The “Biochemical activity” value (BRD4 (BD1+BD2); [13]) was 2.146 and 9.5447, the “Biochemical activity” value (BRD4 (BD1+BD2); [14]) was 15.5205 and 30.3178 and the “Biochemical activity” value (BRD4 (BD1+BD2); [15]) was 82.9618 and 83.2464. For the same molecule, the “Biochemical activity” value (BRD4 (BD1+BD2); [16]) was 99.4664 and 98.6128, the “Biochemical activity” value (BRD4 (BD1+BD2); Fig.1d, concentration(nM) 3) was 101.174 and 100.889 and the IC50 (BRD4 (BD1+BD2)) was 28.3 ± 1.45 nM. For the same molecule, the “Cellular activity in SCLCs (H211), alamarBlue” value (“Cellular activity in SCLCs” below) ([1]; concentration 0.0169701) was 11.62 and 22.01, the “Cellular activity in SCLCs” value ([1]; concentration 0.0398488) was 7.96 and 8.04 and the “Cellular activity in SCLCs” value ([1]; concentration 0.137272) was 3.53 and 13.11. The “Cellular activity in SCLCs” value ([1]; concentration 0.614394) was 11.24 and 2.1, the “Cellular activity in SCLCs” value ([1]; concentration 1.09152) was 18.38 and 12.66 and the “Cellular activity in SCLCs” value ([1]; concentration 1.56864) was 47.24 and 47.49. The “Cellular activity in SCLCs” value ([1]; concentration 2.04576) was 87.44 and 87.79, the “Cellular activity in SCLCs” value ([1]; concentration 3) was 95.52 and 94.98 and the “Cellular activity in SCLCs” value [1, 17] was 93.3 and 93.73. For the same molecule, the IC50 [1] was 38 ± 1.58 nM, the “Cellular activity in TNBCs (MDA-MB231), alamarBlue” value (“Cellular activity in TNBCs” below) ([2]; concentration 0.15) was 9.03 and 8.43 and the “Cellular activity in TNBCs” value ([2]; concentration 0.6) was 17.61 and 17.32. For the same molecule, the “Cellular activity in TNBCs” value ([2]; concentration 1) was 35.92 and 25.61, the “Cellular activity in TNBCs” value ([2]; concentration 1.5) was 53.39 and 55.36 and the “Cellular activity in TNBCs” value ([2]; concentration 2) was 70.13 and 73.2. For the same molecule, the “Cellular activity in TNBCs” value ([2]; concentration 2.5) was 91.51 and 91.02, the “Cellular activity in TNBCs” value ([2]; concentration 3) was 94.65 and 95.19 and the “Cellular activity in TNBCs” value ([2]; concentration -0.3) was 6.21 and 5.27. For the same molecule, the “Cellular activity in TNBCs” value ([2]; concentration -0.9) was 2.77 and 4.58 and the IC50 [2] was 31.6 ± 1.5 nM.

For `Cc1nnn(C)c1-c1cnc2c3cc4cnn(C)c4cc3n([C@H](c3ccccc3)C3CCOCC3)c2c1` [NHWD-850], the “Biochemical activity” value (BRD4 (BD1+BD2); [10]) was 0.1541 and 1.269, the “Biochemical activity” value (BRD4 (BD1+BD2); [11]) was 12.3903 and 11.5366 and the “Biochemical activity” value (BRD4 (BD1+BD2); [12]) was 4.399 and 8.952. For the same molecule, the “Biochemical activity” value (BRD4 (BD1+BD2); [13]) was 7.837 and 3, the “Biochemical activity” value (BRD4 (BD1+BD2); [14]) was 31.456 and 32.5943 and the “Biochemical activity” value (BRD4 (BD1+BD2); [15]) was 96.9054 and 95.198. The “Biochemical activity” value (BRD4 (BD1+BD2); [16]) was 100.036 and 100.889, the “Biochemical activity” value (BRD4 (BD1+BD2); Fig.1d, concentration(nM) 3) was 99.751 and 100.889 and the IC50 (BRD4 (BD1+BD2)) was 20.6 ± 1.31 nM. The “Cellular activity in SCLCs” value ([1]; concentration 0.0169701) was 0.35 and 1.87, the “Cellular activity in SCLCs” value ([1]; concentration 0.0398488) was 0.32 and 1.84 and the “Cellular activity in SCLCs” value ([1]; concentration 0.137272) was 0.23 and -0.84. For the same molecule, the “Cellular activity in SCLCs” value ([1]; concentration 0.614394) was 7.16 and 14.38, the “Cellular activity in SCLCs” value ([1]; concentration 1.09152) was 35.94 and 34.48 and the “Cellular activity in SCLCs” value ([1]; concentration 1.56864) was 89.1 and 88.35. For the same molecule, the “Cellular activity in SCLCs” value ([1]; concentration 2.04576) was 90.09, the “Cellular activity in SCLCs” value ([1]; concentration 3) was 89.78 and 89.22 and the “Cellular activity in SCLCs” value [1, 17] was 89.03 and 89.34. The IC50 [1] was 16 ± 1.21 nM, the “Cellular activity in TNBCs” value ([2]; concentration 0.15) was 15.75 and 17.7 and the “Cellular activity in TNBCs” value ([2]; concentration 0.6) was 25.28 and 23.6. For the same molecule, the “Cellular activity in TNBCs” value ([2]; concentration 1) was 46.11 and 48.16, the “Cellular activity in TNBCs” value ([2]; concentration 1.5) was 71.17 and 69.3 and the “Cellular activity in TNBCs” value ([2]; concentration 2) was 82.44 and 82.62. The “Cellular activity in TNBCs” value ([2]; concentration 2.5) was 86.67 and 86.03, the “Cellular activity in TNBCs” value ([2]; concentration 3) was 88.63 and 88.4 and the “Cellular activity in TNBCs” value ([2]; concentration -0.3) was 7.16 and 12.83. The “Cellular activity in TNBCs” value ([2]; concentration -0.9) was 4.44 and 11.66 and the IC50 [2] was 14.5 ± 1.16 nM.
